According to patent publication US20110275574A1, “METHOD OF INHIBITING PROLIFERATION OF HEPATIC STELLATE CELLS” (Agency for Science, Technology and Research, priority 2009, published 2011):
d = 2'-deoxy (DNA); r = 2'-OH (RNA)

Assays:
Cx43 protein = Cx43 protein expression by Western blot in HSC-2 cells; assay type: cell-based, rat
Experimental: Hepatic stellate cells treatment with recombinant human TGF-β1: Twenty four hours prior to treatment, HSCs were seeded in 75 cm^2 tissue culture flasks. […] For the control treatment, only phosphate-buffered saline (PBS) was given to the cells. In some experiments, HSC-2 cells were treated with bisindolylmaleimide I (BIM I) at a final concentration of 5 μM for 30 min before treatment with 10 ng/ml hTGF-β1.
SDS-PAGE and Western blot: Cell lysis and subsequent separation of total protein in SDS-PAGE followed by Western blot was performed as recently described (Lim et al., 2008). The membrane was blocked with 5% non-fat milk in TBS-Tween (TBS-T). The Cx43 (sc-9059, Santa Cruz Biotechnology, USA), phosphorylated Cx43 at serine 368 (pCx43 Ser368, 3511S, Cell Signaling Technology, USA), PCNA (Ab29, Abcam, UK) and β-actin (A2228, Sigma, USA) primary antibodies were applied at a dilution of 1:1000, 1:750, 1:5000 and 1:7500 respectively in blocking solution. After three washes in TBS-T, the appropriate secondary antibody conjugated with horse radish peroxidase (Santa Cruz Biotechnology, USA) was added at a dilution of 1:2000 in blocking solution. After three washes in TBS-T, the membrane was developed with ECL Plus (RPN2132, GE Healthcare, UK). […] Semi-quantitative densitometric analysis of Western blots was performed using the ImageJ software (W. Rasband, NIH; rsb.info.nih.gov/ij/). […]

[1] = system: Snai1 consensus sequence in the Cx43 promoter; experiment: Electrophoretic mobility shift assay, HSC-2 nuclear extract on Snai1 consensus sequence of rat Cx43 promoter; assay type: cell-based; details: nuclear extract of HSC-2, 10 ng/ml hTGF-β1 2 hours, versus untreated
Excerpt: Electrophoretic mobility shift assay: Based on the rat Cx43 gene (NW—001084790), biotinylated double-stranded oligonucleotide probe […]-3 [SEQ ID NO: 12], with the Snai1 consensus sequence (underlined), was synthesized (Research Biolabs, Singapore). In the mutated double-stranded oligonucleotide, the Snai1 consensus sequence was changed to CAGGAA. Nuclear protein extract was obtained using the NE-PER Nuclear and Cytoplasmic Extraction kit (Pierce, USA). The electrophoretic mobility shift assay was performed using reagents from the Snai1 kit according to its protocol (AY1398, Panomics, USA). Briefly, 5 μg nuclear protein extract was incubated in a reaction mixture consisting of poly d(1-C), 5× binding buffer and nuclease-free water for 5 min before addition of 1 μl probe (stock 20 nM). The total reaction volume was 10 μl. For competition assay, 2 μl unlabeled probe (stock 2 μM) was added 5 min prior to the addition of labeled probe. The reaction was incubated at 15° C. for 30 min. The samples were separated in a 6% non-denaturing polyacrylamide gel (Invitrogen) and transferred onto a nylon membrane.

Snai1 mRNA = Snai1 mRNA expression in in vitro activated primary HSCs; assay type: cell-based, rat; details: 1 and 10 ng/ml hTGF-β1, 10 hours
Experimental: (§1) Cell culture conditions: Primary hepatic stellate cells were isolated from male Wistar rats according to a previously published procedure (Weiskirchen and Gressner, 2005). The protocol was approved by the Institutional Animal Care and Use Committee (IACUC) of the Biomedical Research Council of Singapore. The purity of primary HSCs was assessed by vitamin A autofluorescence one day after isolation. The cell line HSC-2 was described elsewhere (Maubach et al., 2008). All cells were cultivated in a humidified 37° C. incubator circulated with 5% CO2. High glucose Dulbecco's modified Eagle medium (D-MEM) containing 10% fetal bovine serum, 100 units/ml penicillin and 100 μg/ml streptomycin was used during cell culture. Trypsin-EDTA was purchased from Biochrome (Germany). All other cell culture reagents were from Invitrogen (CA, USA).
Hepatic stellate cells treatment with recombinant human TGF-β1: Twenty four hours prior to treatment, HSCs were seeded in 75 cm^2 tissue culture flasks. At 60-70% cell confluence, recombinant human TGF-β1 (hTGF-[3]) was added at a final concentration of 1 or 10 ng/ml and incubated for 2, 6, 10, 24 or 30 hours. For the control treatment, only phosphate-buffered saline (PBS) was given to the cells. […]
Reverse transcription and quantitative PCR: Total RNA was isolated from cells according to the manufacturer's protocol (RNA II kit, Machery-Nagel, Germany). […]

pCx43 Ser368 = experiment: Phosphorylation of Cx43 at serine 368 by Western blot in HSC-2 cells; assay type: cell-based, rat
Experimental: (§2) Hepatic stellate cells treatment with recombinant human TGF-β1: Twenty four hours prior to treatment, HSCs were seeded in 75 cm^2 tissue culture flasks. At 60-70% cell confluence, recombinant human TGF-β1 (hTGF-[3]) was added at a final concentration of 1 or 10 ng/ml and incubated for 2, 6, 10, 24 or 30 hours. For the control treatment, only phosphate-buffered saline (PBS) was given to the cells. In some experiments, HSC-2 cells were treated with bisindolylmaleimide I (BIM I) at a final concentration of 5 μM for 30 min before treatment with 10 ng/ml hTGF-β1.
SDS-PAGE and Western blot: Cell lysis and subsequent separation of total protein in SDS-PAGE followed by Western blot was performed as recently described (Lim et al., 2008). The membrane was blocked with 5% non-fat milk in TBS-Tween (TBS-T). The Cx43 (sc-9059, Santa Cruz Biotechnology, USA), phosphorylated Cx43 at serine 368 (pCx43 Ser368, 3511S, Cell Signaling Technology, USA), PCNA (Ab29, Abcam, UK) and β-actin (A2228, Sigma, USA) primary antibodies were applied at a dilution of 1:1000, 1:750, 1:5000 and 1:7500 respectively in blocking solution. […] Semi-quantitative densitometric analysis of Western blots was performed using the ImageJ software (W. Rasband, NIH; rsb.info.nih.gov/ij/).

HSC-2 cells [2] = experiment: Cell counting (proliferation) of HSC-2 cells; assay type: cell-based, rat
Experimental: (§3) Snai1 and connexin 43 siRNAs transfection: Shortly before transfection, 1−2×10^6 HSC-2 cells were seeded in 100 mm cell culture dishes and incubated at 37° C. The siRNA was added at a final concentration of 10 nM to 1 ml of D-MEM without serum, followed by 120 μl of HiPerfect transfection reagent (Qiagen, Germany) and incubated for 10 min. The siRNA/transfection reagent solution was added drop-wise to the cells and incubated for 24 or 48 hours. As mock control, only HiPerfect reagent was added to the cells. The Snai1 siRNAs used were Rn_Snai1—1 and Rn_Snai1—3 and the Cx43 siRNAs used were Rn_Gja1—1 and Rn_Gja1—5 (Qiagen, Germany).
Cell counting: After treatment, cells were washed once with PBS and detached using trypsin/EDTA. Following centrifugation at 800 rpm for 4 min, the cell pellet was resuspended in 1 ml D-MEM and the cells were counted using the forward scatter function of the GUAVA PCA-96 (Guava Technologies, CA, USA).

Cx43 mRNA = Cx43 mRNA expression by quantitative real-time PCR in HSC-2 cells; assay type: cell-based, rat
Experimental: as §1, §2
Reverse transcription and quantitative PCR: Total RNA was isolated from cells according to the manufacturer's protocol (RNA II kit, Machery-Nagel, Germany). All reagents for reverse transcription and real-time PCR were from Applied Biosystems (CA, USA). One microgram of total RNA was reverse transcribed to cDNA in a total reaction volume of 50 μl at conditions described in the RT kit (N8080234). Real-time PCR reactions were performed using the Fast Real Time PCR System (Applied Biosystems). Three microlitres of cDNA were used in a PCR reaction volume of 10 μl. The Taqman probes for target genes Cx43 and Snai1, as well as for endogenous control β-actin were Rn01433957_m1, Rn00441533_g1 and 4352341E, respectively. The PCR conditions were 95° C. for 20 s and 40 cycles of amplification at 95° C. for 3 s and 60° C. for 30 s.
as §3

PCNA = experiment: Expression of proliferation marker PCNA by Western blot in HSC-2 cells; assay type: cell-based, rat; details: HSC-2, 10 ng/ml hTGF-β1, 48 hours
Experimental: SDS-PAGE and Western blot: Cell lysis and subsequent separation of total protein in SDS-PAGE followed by Western blot was performed as recently described (Lim et al., 2008). The membrane was blocked with 5% non-fat milk in TBS-Tween (TBS-T). The Cx43 (sc-9059, Santa Cruz Biotechnology, USA), phosphorylated Cx43 at serine 368 (pCx43 Ser368, 3511S, Cell Signaling Technology, USA), PCNA (Ab29, Abcam, UK) and β-actin (A2228, Sigma, USA) primary antibodies were applied at a dilution of 1:1000, 1:750, 1:5000 and 1:7500 respectively in blocking solution. After three washes in TBS-T, the appropriate secondary antibody conjugated with horse radish peroxidase (Santa Cruz Biotechnology, USA) was added at a dilution of 1:2000 in blocking solution. After three washes in TBS-T, the membrane was developed with ECL Plus (RPN2132, GE Healthcare, UK). The incubation with pCx43 antibody was performed overnight at 4° C. All other incubations were carried out for 1 hour at room temperature. Semi-quantitative densitometric analysis of Western blots was performed using the ImageJ software (W. Rasband, NIH; rsb.info.nih.gov/ij/).
Snai1 and connexin 43 siRNAs transfection: Shortly before transfection, 1−2×10^6 HSC-2 cells were seeded in 100 mm cell culture dishes and incubated at 37° C. […]

Snai1 = Snai1 mRNA and protein expression (real-time PCR, Western blot) in HSC-2 cells; assay type: cell-based, rat
Experimental: as §2
Reverse transcription and quantitative PCR: Total RNA was isolated from cells according to the manufacturer's protocol (RNA II kit, Machery-Nagel, Germany). All reagents for reverse transcription and real-time PCR were from Applied Biosystems (CA, USA). One microgram of total RNA was reverse transcribed to cDNA in a total reaction volume of 50 μl at conditions described in the RT kit (N8080234). Real-time PCR reactions were performed using the Fast Real Time PCR System (Applied Biosystems). […]
SDS-PAGE and Western blot: Cell lysis and subsequent separation of total protein in SDS-PAGE followed by Western blot was performed as recently described (Lim et al., 2008). […] Semi-quantitative densitometric analysis of Western blots was performed using the ImageJ software (W. Rasband, NIH; rsb.info.nih.gov/ij/). […]

HSC-2 cells [3] = experiment: gap-FRAP analysis of gap junction intercellular communication; assay type: cell-based, rat
Experimental: Analysis of gap junction intercellular communication: HSC-2 cells were grown in a 60 mm cell culture dish overnight. At 90% cell confluence, hTGF-β1 (final concentration 10 ng/ml) or carbenoxolone (final concentration 40 μM) was added and incubated for 6 hours. As control, only PBS was given to the cells. Alternatively, BIM I (final concentration 5 μM) was added 30 minutes before the addition of hTGF-[3]. After a brief rinse in PBS, cells were incubated in D-MEM without phenol red, containing 5,6-carboxyfluorescein diacetate (Research Organics, USA) at a final concentration of 50 μg/ml and incubated in a 37° C. humidified incubator for 30 min. The cells were then rinsed twice with PBS and D-MEM without phenol red was added before proceeding with the Fluorescence Recovery After Photobleaching (FRAP) assay. The FRAP application included in the software package of the LEICA TCS SP2 equipped with the DM6000 (LEICA, Germany) was used. A 63× immersed objective (Leica HCX APO L U-V-I 63×/0.90 Water UV) was used. The argon laser at 488 nm was used for excitation and the fluorescence signal was captured between 500 and 535 nm. The conditions were as follows: 5 pre-bleach scans at 10% laser power, 40 bleach scans at 100% laser power followed by 60 post-bleach scans at 15 seconds intervals. During the bleaching period, the Zoom mode was used to bleach a single cell (target cell) defined in a region of interest (ROI). All data were corrected for photobleaching during post-bleach acquisition using the whole scanned area. The time constant of recovery, tau (τ), was estimated by fitting the corrected experimental data (OriginPro 7 SR4, OriginLab USA) to the following function: F(t)=F0+(F∞−F0)(1−e^−t/τ), with F(t) being the corrected fluorescence intensity and F∞ being the asymptotic value of the fluorescence intensity. The transfer constant (k) was calculated from k=1/τ and normalized by dividing by the number of cells in contact with the target cell. The fluorescence recovery for each cell was about 50%.

[4] = HSC-2, 10 ng/ml hTGF-β1, 48 hours
[5] = HSC-2, 10 ng/ml hTGF-β1, up to 30 hours

## hTGF-β1: recombinant human TGF-β1, pro-fibrogenic cytokine added to HSCs
Cx43 protein; [4]
  expression of Cx43: significant reduction
Cx43 protein; HSC-2, 1 and 10 ng/ml hTGF-β1, 24 hours
  Cx43 protein regulation: down-regulated
[1]
  EMSA band of Snai1-oligonucleotide complex: more intense band
Snai1 mRNA
  Snai1 mRNA: induced
pCx43 Ser368; HSC-2, 10 ng/ml hTGF-β1, 6 hours
  phosphorylation of Cx43 at serine 368: increase
HSC-2 cells [2]; [4]
  cell number: significant reduction
Cx43 mRNA; HSC-2, 1 ng/ml hTGF-β1, 10 hours
  decrease of Cx43 transcripts: 30%
Cx43 mRNA; HSC-2, 10 ng/ml hTGF-β1, 10 hours
  decrease of Cx43 transcripts: 45%
Cx43 mRNA; [5]
  Cx43 transcript and protein expression: decrease
PCNA
  expression of PCNA: significant reduction
Snai1; [5]
  Snai1 transcript and protein expression: increase
Snai1; HSC-2, 1 and 10 ng/ml hTGF-β1, 10 hours
  Snai1 mRNA: induced
HSC-2 cells [3]; HSC-2, 10 ng/ml hTGF-β1, 6 hours, versus PBS control
  transfer rate of the fluorescence dye 5,6-carboxyfluorescein diacetate: significantly lower

## Cx43 siRNA 1: Cx43 siRNA, sense strand r(CAG UGC ACA UGU AAC UAA U)dTdT [SEQ ID NO: 6], antisense SEQ ID NO: 7 (Qiagen) (sense CAGUGCACAUGUAACUAAUTT; antisense AUUAGUUACAUGUGCACUGTT; sugars from the 5' end r19 d2, backbone not given here)
HSC-2 cells [2]; HSC-2, Cx43 siRNA 10 nM, 48 hours, versus mock-transfected
  total number of cells: significant decline
Cx43 mRNA; HSC-2, Cx43 siRNA 10 nM, 48 hours, relative to mock-transfected
  down-regulation of Cx43 mRNA: about 65%

## CN(C)CCCn1cc(C2=C(c3c[nH]c4ccccc34)C(=O)NC2=O)c2ccccc21 [BIM I, bisindolylmaleimide I, reference compound]
pCx43 Ser368; HSC-2, 5 μM BIM I 30 min before 10 ng/ml hTGF-β1
  phosphorylation of Cx43 at serine 368 after hTGF-β1: reduces
HSC-2 cells [3]; HSC-2, 5 μM BIM I 30 minutes before 10 ng/ml hTGF-β1
  TGF-β1-induced down-regulation of GJIC: attenuated
